Experiment [1] deals with canine removed basilar artery. As to the kind of experiment: Vasoconstrictor action of canine removed basilar artery by S1P. More on the design: species or system canine (beagle). The note with it: for constriction of canine basilar arteries: serotonin 1 μM (positive control), S1P 10 μM; for inhibitory effect on vasoconstrictive action of canine basilar artery by S1P: 10 μM test compound added 20 minutes after S1P (10 μM). The source says:
(§1) The removed basilar arteries of euthanized male beagle (12 months old) was immersed in Krebs-Henseleit solution [112 mmol/L sodium chloride, 5.9 mmol/L potassium chloride, 2.0 mmol/L calcium chloride, 1.2 mmol/L magnesium chloride, 1.2 mmol/L monobasic sodium phosphate, 25.0 mmol/L sodium hydrogen carbonate NaHCO3, 11.5 mmol/L glucose, saturated by mixed gas (95% O2+5% CO2)]. They were divided by 3-4 mm with ophthalmic scissors and made as ringed samples. Made ringed tissues were hung in magnus tube (volume: 10 mL) filled with Krebs-Henseleit solution [37±1° C., aerated with mixed gas (95% O2+5% CO2)] using a hook. Next, they were loaded with 1 g resting tension stabilized for about 60 minutes, then constrictive movement was recorded on a recorder through strain compression amplifier (AP-601G, Nihon Kohden) from Force displacement transducer (FD pickup TB-611T). Serotonin (1 μM) is used as positive control for constriction action. After that, S1P (10 μM) adding, vasoconstrictive action was measured. As a result, serotonin and S1P constricted basilar arteries.
As a result, test compounds having EDG-5 antagonist activity inhibited vasoconstrictive action by S1P.

Experiment [2] relates to canine removed renal artery. Briefly: Vasoconstrictor action of canine renal artery by S1P. Also on record: species or system canine (beagle). The note with it: for constriction of canine renal arteries: serotonin 1 μM (positive control), S1P 10 μM; for inhibitory effect on vasoconstrictive action of canine renal arteries by S1P: 10 μM test compound added 40 minutes after S1P.
Description: as §1, with “renal” for “basilar”

The subject of experiment [3] is rat removed thoracic aorta. Briefly: Vasoconstrictive action of rat removed thoracic aorta by S1P or phenylephrine. The note with it: for constriction of rat thoracic aorta: phenylephrine 10 μM (positive control), S1P 10 μM. The source says: The removed thoracic aorta of euthanized SD rat (7-13 weeks old) was immersed in Krebs-Henseleit solution [112 mmol/L sodium chloride, 5.9 mmol/L potassium chloride, 2.0 mmol/L calcium chloride, 1.2 mmol/L magnesium chloride, 1.2 mmol/L monobasic sodium phosphate, 25.0 mmol/L sodium hydrogen carbonate NaHCO3, 11.5 mmol/L glucose, saturated by mixed gas (95% O2+5% CO2)]. They were divided by 3-4 mm with ophthalmic scissors and made as vortical samples. Made samples were hung in magnus tube (volume: 10 mL) filled with Krebs-Henseleit solution [37±1° C., aerated with mixed gas (95% O2+5% CO2)] using a hook. Next, they were loaded with 0.5 g resting tension stabilized for about 60 minutes, then constrictive movement was recorded on a recorder through strain compression amplifier (AP-601G, Nihon Kohden) from Force displacement transducer (FD pickup TB-611T). Sympathetic nerve stimulant, phenylephrine, (10 μM) is used as positive control for constriction action. After that, S1P (10 μM) adding, vasoconstrictive action was measured. As a result, phenylephrine and S1P constricted rat thoracic aorta.

A further experiment concerns SD rat. As to the kind of experiment: Increase of rat blood pressure by S1P. It is filed as in vivo. As to conditions: anesthetized male SD rat. The protocol:
Male SD Rat (8 weeks old-10 weeks old) was anesthetized by injection of pentobarbital sodium (50 mg/mL/kg), after midline incision in the cervical region, trachea was exposed by exfoliation of tracheal muscle layer and cannula made of polyethylene was inserted into trachea. Next, catheter made of polyethylene was inserted into the common carotid artery and the common jugular vein. Catheter inserted into the common carotid artery was connected to the piezotransducer and the blood pressure was recorded on the recorder through strain compression amplifier. After the above mentioned operation was finished, in the case of the spinal chord was broken, the spinal chord was broken by insertion of stainless pole into the spinal chord cavity. After the spinal chord was broken, tracheal cannula was immediately connected into the artificial breathing device for small animals and artificial ventilation was performed under the conditions of a ventilatory volume 6 mL/kg and velocity 60 times/min. After then, S1P was administered and we confirmed blood pressure was increased. […] As a result, the compound (3) inhibited the increase of blood pressure by S1P.

The test system of the next experiment is removed rat heart. As to the kind of experiment: Removed rat heart (Langendorff heart). As to conditions: Langendorff heart mode; for contractive force of heart muscle: EDG-5 antagonist. An excerpt:
Rat (CD(SD)IGS, male, Charles River Japan Inc., 8 weeks old-10 weeks old, 300-450 g) was anesthetized by diethylether, opened the abdominal cavity, injected intravenously with heparin and then, exsanguinated to death. The heart was quickly removed by opening the chest cavity and the removed heart was immersed into cooled Krebs-Henseleit solution. The tissues were trimmed away under the cooling, aortic arches were inserted into the heart functional measuring equipment and fixed with sutures without leaking out. The rat heart function was measured using the heart functional measuring equipment (model IPH-W2, Labo-support). The equipment was used in the Langendorff Heart mode (non-working heart mode) and load was 68-70 mmHg. […] Catheter filled with physiological saline was inserted into the left ventricle, the catheter was connected to the piezotransducer (DX-100, Nihon Kohden) and the left ventricle pressure (LVP) was measured through strain compression amplifier (AP-601G, Nihon Kohden). Heart rate was calculated using LVP data with the heart rate measuring equipment (AT-601G, Nihon Kohden) and dLVP/dt was calculated with differential processor (EQ-641G, Nihon Kohden). Probes of electromagnetic flowmeter (model FF-020T, inside diameter 2 mm, Nihon Kohden) were set on the way to the passage of nutrient solution and the flow rate of nutrient solution (corresponding the blood flow rate of coronary artery) was measured using electromagnetic flowmeter (MFV-3100, Nihon Kohden). Administration of S1P and the compounds was performed by injection of dilution with nutrient solution into the passage of nutrient solution using infusion pump. The injection rate of drug solution was set as the flow rate of nutrient solution before starting of administration. […] Using the above mentioned model, effect of EDG-5 antagonist on heart function was examined. […] EDG-5 antagonist, the compound (1), the compound (2) and the compound (3) increased the flow rate of nutrient solution. In addition, they increased contractive force of heart muscle at the same time. […] It was considered that S1P had no direct chronotropic action and inotropic action on pacemaker and heart muscle and S1P had lowering effect on heart function by contracting the coronary blood vessels and ischemia.

The next experiment deals with T1, human EDG-5 (Homo sapiens, UniProt O95136).
T1 construct: expressed in transfected cells; host or cells: CHO cells
As to the kind of experiment: Antagonistic activity for EDG-5 by monitoring concentration change of intracellular calcium ion. It is filed as cell-based. The note with it: CHO cells overexpressing human EDG-5; S1P 100 nM. On the procedure:
Chinese hamster ovary (CHO) cells overexpressed human EDG-5 gene were cultured in Ham's F12 medium (GIBCO BRL) containing 10% FBS (fetal bovine serum), penicillin/streptomycin, and blasticidin (5 μg/ml). Cultured cells were incubated in a Fura2 (5 μM)-AM solution [Ham's F12 medium containing FBS (10%), HEPES buffer (20 mM, pH7.4), and probenecid (2.5 mM)] at 37° C. for 60 minutes. Then they were washed once with a Hank's solution (2.5 mM) containing probenecid and immersed into the same solution. A plate was set on a fluorescent drug screening system, and the concentration of intracellular calcium ion was measured for 30 seconds with no stimulation. A solution of a compound (dimethyl sulfoxide (DMSO) solution of 1 nM to 10 μM at the final concentration) to be tested was added. After lapse of 5 minutes, S1P (final concentration: 100 nM) was added, the concentration of intracellular calcium ion before and after the addition was measured every 3 seconds (excitation wave length: 340 nm and 380 nm; fluorescent wave length: 500 nm). […]

A further experiment has as its target T2, human EDG-1 (Homo sapiens, UniProt P21453).
T2 construct: expressed in transfected cells
Briefly: Antagonist evaluation for EDG-1, intracellular calcium ion. It is filed as cell-based. The note with it: cells overexpressing human EDG-1. In general terms: Calcium assays in cells follow changes in intracellular calcium, usually with a dye or a luminescent sensor.

Another experiment deals with T3, human EDG-3 (Homo sapiens, UniProt Q99500).
T3 construct: expressed in transfected cells
As to the kind of experiment: Antagonist evaluation for EDG-3, intracellular calcium ion. The note with it: cells overexpressing human EDG-3. It is filed as cell-based.

In experiment [4] the test system is rabbit vasoconstrictive action by S1P. As to the kind of experiment: Rabbit vasoconstrictive action by S1P.
The next experiment relates to rabbit thoracic aorta. Briefly: Vasoconstrictive action of rabbit thoracic aorta by S1P.
The next experiment relates to canine thoracic aorta. As to the kind of experiment: Vasoconstrictive action of canine thoracic aorta by S1P.
Experiment [5] deals with rat removed basilar artery. As to the kind of experiment: Vasoconstrictor action of rat removed basilar artery. As to conditions: 3 μM (FIG. 3, FIG. 4). On the procedure:
Basilar arteries were removed from male rat (CD(SD)IGS, male, Charles River Japan, Inc., 8 weeks old-10 weeks old, 350-450 g) and quickly immersed in cooled Krebs-Henseleit solution. Removed basilar arteries were divided by about 3 mm width with ophthalmic scissors and made as ringed samples. Samples hung in micro tissue organ bath (MTOB-1: Preimetech Corp.) filled with Krebs-Henseleit solution (37° C.). They were loaded with about 0.2 g resting tension stabilized for about 60 minutes, and then constrictive movement was recorded on a recorder (linearcoda WR3320: Graphtec Corp.) through strain compression amplifier (AP-601G, Nihon Kohden) from micro tissue organ bath.

In experiment [6] the test system is removed rabbit portal vein/mesenteric vein. As to the kind of experiment: Constriction of the removed rabbit vein by S1P. The protocol: The portal vein/mesenteric vein was removed form male rabbit (NZ White, about 2 kg) under anesthesia and vertical sample of width 2-3 mm and length 3-4 mm was made. Made samples were hung in magnus tube (volume: 5 mL) filled with Krebs-Henseleit solution (37° C.) using a hook. They were loaded with 0.5 g resting tension stabilized for about 60 minutes, then constrictive movement was recorded on a recorder (linear recorder WR3320: Graphtec Corp.) through strain compression amplifier (AP-601G, Nihon Kohden) from Force displacement transducer (FD pickup TB-611T).

Molecules are shown by their SMILES. Entries after “also recorded” stand apart in the source; their conditions may differ.

This is an account of results in patent US8765783B2, “Pharmaceutical composition for treatment of disease due to vascular constriction or vasodilation” (Ono Pharmaceuticals Co., Ltd., priority 2002, dated 2014).

T3 sequence (Q99500 whole entry): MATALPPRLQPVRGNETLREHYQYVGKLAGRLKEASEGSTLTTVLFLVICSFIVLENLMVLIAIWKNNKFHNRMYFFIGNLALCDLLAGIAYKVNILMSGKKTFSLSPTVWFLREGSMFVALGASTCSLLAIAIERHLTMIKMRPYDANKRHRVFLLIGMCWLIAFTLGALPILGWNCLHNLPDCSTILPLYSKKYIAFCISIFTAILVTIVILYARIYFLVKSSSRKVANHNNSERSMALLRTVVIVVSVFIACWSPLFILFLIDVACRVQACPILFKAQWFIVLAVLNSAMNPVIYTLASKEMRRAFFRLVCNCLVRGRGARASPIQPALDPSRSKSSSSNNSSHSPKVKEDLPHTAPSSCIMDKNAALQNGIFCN
T2 sequence (P21453 whole entry): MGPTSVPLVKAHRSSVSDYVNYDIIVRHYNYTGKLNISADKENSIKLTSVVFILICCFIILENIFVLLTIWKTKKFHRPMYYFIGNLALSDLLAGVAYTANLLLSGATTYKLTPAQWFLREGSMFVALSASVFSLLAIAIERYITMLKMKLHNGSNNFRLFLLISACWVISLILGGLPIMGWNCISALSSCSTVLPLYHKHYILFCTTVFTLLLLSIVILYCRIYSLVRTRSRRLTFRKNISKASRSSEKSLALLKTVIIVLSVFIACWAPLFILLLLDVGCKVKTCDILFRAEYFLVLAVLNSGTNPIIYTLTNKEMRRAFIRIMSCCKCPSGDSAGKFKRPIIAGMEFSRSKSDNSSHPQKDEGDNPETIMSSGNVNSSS
T1 sequence (O95136 whole entry): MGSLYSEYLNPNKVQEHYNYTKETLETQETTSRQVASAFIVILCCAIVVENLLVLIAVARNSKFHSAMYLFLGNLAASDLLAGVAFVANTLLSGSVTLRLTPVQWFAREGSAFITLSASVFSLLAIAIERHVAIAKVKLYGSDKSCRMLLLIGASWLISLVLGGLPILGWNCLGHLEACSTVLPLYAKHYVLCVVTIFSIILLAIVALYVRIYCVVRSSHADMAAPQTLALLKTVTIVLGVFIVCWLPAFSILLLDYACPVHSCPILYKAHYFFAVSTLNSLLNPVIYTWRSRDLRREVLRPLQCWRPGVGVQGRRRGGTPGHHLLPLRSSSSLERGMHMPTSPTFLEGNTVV

On to `CCCCCCCCCCCCC/C=C/[C@@H](O)[C@@H](N)COP(=O)(O)O` [Example S1P, (2S,3R,4E)-2-amino-3-hydroxyoctadeca-4-enyl-1-phosphate], for which the “constriction of canine basilar arteries” value in experiment [1] was “constricted”. Also, the “constriction of canine renal arteries” value in experiment [2] is “constricted”. The “constriction of rat thoracic aorta” value in experiment [3] is on record as “constricted”. Also, in the experiment with SD rat, the “effect of S1P on rat blood pressure” value is “increased”. The “effect of S1P on contractive force of heart muscle” value in the experiment with removed rat heart is “dose-dependently decreased”.
The term IC50 denotes the concentration that inhibits the measured activity by half. For the compound `Cc1nn(C)c2nc(NNC(=O)Nc3c(Cl)cncc3Cl)cc(C(C)C)c12` [compound (1), N-(1H-1,3-dimethyl-4-isopropylpyrazolo[3,4-b]pyridin-6-yl)amino-N′-(3,5-dichloropyridin-4-yl)urea], the concentration for half-maximal inhibition (IC50) on human EDG-5 is 0.5 µM; on human EDG-1, over 10 µM; on human EDG-3 it was over 10 µM. Moreover, the “inhibitory effect on vasoconstrictive action of canine basilar artery by S1P” value in [1] is “inhibited; also recorded: suppression”. Moreover, the “inhibitory effect on rabbit vasoconstrictive action by S1P” value in experiment [4] is recorded as “showed inhibitory effect”. The “inhibitory effect on vasoconstrictive action of canine renal arteries by S1P” value in [2] is “inhibited; also recorded: suppression”. In experiment [3] (10 μM test compound added an hour after S1P (10 μM)), the “inhibition of vasoconstrictive action of rat thoracic aorta by S1P” value is “specifically inhibited; also recorded: suppression”. For the same compound, in experiment [3] (10 μM test compound, phenylephrine 10 μM), the “inhibition of vasoconstrictive action of rat thoracic aorta by phenylephrine” value was “did not inhibit; also recorded: not showing the suppression”. The “inhibitory effect on vasoconstrictive action of rabbit thoracic aorta by S1P” value in the experiment with rabbit thoracic aorta was “showed inhibitory effect”. Besides, in the experiment with canine thoracic aorta, the “inhibitory effect on vasoconstrictive action of canine thoracic aorta by S1P” value is given as “showed inhibitory effect”. In addition, the “flow rate of nutrient solution (corresponding the blood flow rate of coronary artery)” value with removed rat heart was “increased”. In addition, the “contractive force of heart muscle” value in the experiment on removed rat heart was “increased”.
Consider `O=C(Nc1cccc(C(F)(F)F)c1)N1CCC(O)(c2ccc(Br)cc2)CC1` [compound (2), 4-(4-bromophenyl)-4-hydroxy-N-(3-(trifluoromethyl)phenyl)-1-piperidinecarboxamide], for which the IC50 on human EDG-5 is 0.4 µM; at human EDG-1, over 10 µM; at human EDG-3, over 10 µM. In addition, in [1], the “inhibitory effect on vasoconstrictive action of canine basilar artery by S1P” value is given as “inhibited; also recorded: suppression”. Besides, the “inhibitory effect on rabbit vasoconstrictive action by S1P” value in experiment [4] is “showed inhibitory effect”. In addition, the “inhibitory effect on vasoconstrictor action of rat removed basilar artery by S1P” value in [5] is on record as “inhibitory effect; also recorded: suppression”. Also, the “inhibitory effect on vasoconstrictive action of canine renal arteries by S1P” value in [2] was “inhibited; also recorded: suppression”. In the experiment with removed rat heart, the “flow rate of nutrient solution (corresponding the blood flow rate of coronary artery)” value is reported as “increased”. For the same compound, the “contractive force of heart muscle” value in the experiment on removed rat heart is on record as “increased”. The “inhibitory effect on contraction of vein by S1P” value in experiment [6] is “inhibitory effect; also recorded: suppression”.
Consider `CNC[C@H](O)c1cccc(O)c1` [phenylephrine], for which the “constriction of rat thoracic aorta” value in experiment [3] was “constricted”.
On to `NCCc1c[nH]c2ccc(O)cc12` [serotonin], for which the “constriction of canine basilar arteries” value in experiment [1] is given as “constricted”. In experiment [2], the “constriction of canine renal arteries” value was “constricted”.
